Article PMC12406203 (Journal of Medicinal Chemistry, 2025)

Assays:
Test in all cases: KINOMEscan
Type in all cases: binding
[1] = target: T1, ULK2 (Homo sapiens, UniProt Q8IYT8)
T1 construct: purchased Eurofins DiscoverX, LLC; host or cells: E. coli BL21-derived host (T7 phage) or HEK-293
T1 sequence (Q8IYT8 1-1036): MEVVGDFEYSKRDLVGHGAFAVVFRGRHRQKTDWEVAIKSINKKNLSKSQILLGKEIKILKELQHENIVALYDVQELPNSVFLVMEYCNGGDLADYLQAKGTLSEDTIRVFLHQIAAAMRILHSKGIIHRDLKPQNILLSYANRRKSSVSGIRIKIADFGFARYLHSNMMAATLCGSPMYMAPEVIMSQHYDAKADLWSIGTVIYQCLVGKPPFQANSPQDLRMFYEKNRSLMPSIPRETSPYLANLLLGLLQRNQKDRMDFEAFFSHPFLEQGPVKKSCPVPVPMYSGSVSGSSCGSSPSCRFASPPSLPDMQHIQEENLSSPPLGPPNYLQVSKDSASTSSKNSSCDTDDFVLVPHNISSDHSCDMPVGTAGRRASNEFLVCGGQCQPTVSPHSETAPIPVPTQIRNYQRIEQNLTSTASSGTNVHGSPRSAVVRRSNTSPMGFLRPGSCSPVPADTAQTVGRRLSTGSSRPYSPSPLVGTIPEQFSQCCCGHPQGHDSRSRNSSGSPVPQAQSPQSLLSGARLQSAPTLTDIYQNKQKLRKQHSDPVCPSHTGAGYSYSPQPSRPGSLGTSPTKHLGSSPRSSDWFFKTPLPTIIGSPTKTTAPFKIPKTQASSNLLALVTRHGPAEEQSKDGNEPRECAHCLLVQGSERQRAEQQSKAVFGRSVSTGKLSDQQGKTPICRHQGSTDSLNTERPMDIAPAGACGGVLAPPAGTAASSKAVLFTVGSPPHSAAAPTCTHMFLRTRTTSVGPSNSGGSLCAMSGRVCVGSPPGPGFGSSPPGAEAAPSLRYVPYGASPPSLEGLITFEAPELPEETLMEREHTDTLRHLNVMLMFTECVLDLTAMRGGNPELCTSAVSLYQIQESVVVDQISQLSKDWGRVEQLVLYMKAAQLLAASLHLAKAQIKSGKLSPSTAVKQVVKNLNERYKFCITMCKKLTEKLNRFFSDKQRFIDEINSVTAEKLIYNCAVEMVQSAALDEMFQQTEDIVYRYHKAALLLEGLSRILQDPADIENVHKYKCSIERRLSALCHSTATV

[2] = target: T2, BRAF(V600E) (Homo sapiens, UniProt P15056, V600E)
T2 construct: purchased Eurofins DiscoverX, LLC; host or cells: E. coli BL21-derived (T7 phage) or HEK-293

[3] = target: T3, DCAMKL1 (Homo sapiens, UniProt O15075)
T3 construct: purchased Eurofins DiscoverX, LLC; host or cells: E. coli (T7 phage) or HEK-293
T3 sequence (O15075 1-740): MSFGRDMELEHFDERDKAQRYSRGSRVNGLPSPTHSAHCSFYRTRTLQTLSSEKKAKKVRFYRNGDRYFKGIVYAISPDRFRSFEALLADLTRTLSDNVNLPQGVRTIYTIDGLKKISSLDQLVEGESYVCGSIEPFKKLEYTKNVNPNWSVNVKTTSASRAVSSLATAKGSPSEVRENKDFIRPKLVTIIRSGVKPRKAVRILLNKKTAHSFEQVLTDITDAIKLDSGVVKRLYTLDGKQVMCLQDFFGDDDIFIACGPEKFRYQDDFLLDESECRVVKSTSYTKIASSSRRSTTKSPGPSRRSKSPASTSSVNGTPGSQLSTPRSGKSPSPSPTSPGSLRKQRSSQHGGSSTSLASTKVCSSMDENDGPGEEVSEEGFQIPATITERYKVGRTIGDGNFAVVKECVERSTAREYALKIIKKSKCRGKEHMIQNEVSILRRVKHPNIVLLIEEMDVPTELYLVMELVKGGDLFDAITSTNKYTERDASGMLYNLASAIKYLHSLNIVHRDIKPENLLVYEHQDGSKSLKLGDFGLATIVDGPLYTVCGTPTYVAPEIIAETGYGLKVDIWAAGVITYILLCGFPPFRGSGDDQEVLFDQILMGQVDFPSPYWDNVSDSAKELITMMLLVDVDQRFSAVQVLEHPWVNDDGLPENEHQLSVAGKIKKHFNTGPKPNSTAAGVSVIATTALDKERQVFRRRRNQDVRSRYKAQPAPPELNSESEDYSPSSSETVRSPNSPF

[4] = target: T4, SRPK3 (Homo sapiens, UniProt Q9UPE1)
T4 construct: purchased Eurofins DiscoverX, LLC; host or cells: E. coli BL21-derived host (T7 phage) or HEK-293

[5] = target: T5, LCK (Homo sapiens, UniProt P06239)
T5 construct: purchased Eurofins DiscoverX, LLC; host or cells: E. coli (BL21-derived, T7 phage) or HEK-293

[6] = target: T6, INSR (Homo sapiens, UniProt P06213)
T6 construct: purchased Eurofins DiscoverX, LLC; host or cells: E. coli (T7 phage) or HEK-293

[7] = target: T7, FGFR2 (Homo sapiens, UniProt P21802)
T7 construct: purchased Eurofins DiscoverX, LLC; host or cells: E. coli (T7 phage) or HEK-293

[8] = target: T8, CDK11 (Homo sapiens, UniProt Q9BWU1)
T8 construct: purchased Eurofins DiscoverX, LLC; host or cells: E. coli BL21-derived (T7 phage) or HEK-293
T8 sequence (Q9BWU1 whole entry): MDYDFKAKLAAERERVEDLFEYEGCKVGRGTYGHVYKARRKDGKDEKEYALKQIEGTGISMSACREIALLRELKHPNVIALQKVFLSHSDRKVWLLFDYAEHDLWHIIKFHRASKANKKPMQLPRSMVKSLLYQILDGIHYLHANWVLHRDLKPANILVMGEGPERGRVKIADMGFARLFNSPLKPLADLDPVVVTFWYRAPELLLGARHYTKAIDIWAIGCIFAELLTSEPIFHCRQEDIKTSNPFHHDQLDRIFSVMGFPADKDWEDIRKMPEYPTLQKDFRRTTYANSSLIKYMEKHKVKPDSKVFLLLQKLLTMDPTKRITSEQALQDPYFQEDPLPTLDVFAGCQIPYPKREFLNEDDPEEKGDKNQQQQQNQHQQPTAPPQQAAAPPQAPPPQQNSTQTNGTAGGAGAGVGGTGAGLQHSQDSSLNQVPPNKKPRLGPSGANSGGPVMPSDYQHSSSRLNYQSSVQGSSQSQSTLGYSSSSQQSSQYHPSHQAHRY

T2 sequence (P15056 whole entry V600E): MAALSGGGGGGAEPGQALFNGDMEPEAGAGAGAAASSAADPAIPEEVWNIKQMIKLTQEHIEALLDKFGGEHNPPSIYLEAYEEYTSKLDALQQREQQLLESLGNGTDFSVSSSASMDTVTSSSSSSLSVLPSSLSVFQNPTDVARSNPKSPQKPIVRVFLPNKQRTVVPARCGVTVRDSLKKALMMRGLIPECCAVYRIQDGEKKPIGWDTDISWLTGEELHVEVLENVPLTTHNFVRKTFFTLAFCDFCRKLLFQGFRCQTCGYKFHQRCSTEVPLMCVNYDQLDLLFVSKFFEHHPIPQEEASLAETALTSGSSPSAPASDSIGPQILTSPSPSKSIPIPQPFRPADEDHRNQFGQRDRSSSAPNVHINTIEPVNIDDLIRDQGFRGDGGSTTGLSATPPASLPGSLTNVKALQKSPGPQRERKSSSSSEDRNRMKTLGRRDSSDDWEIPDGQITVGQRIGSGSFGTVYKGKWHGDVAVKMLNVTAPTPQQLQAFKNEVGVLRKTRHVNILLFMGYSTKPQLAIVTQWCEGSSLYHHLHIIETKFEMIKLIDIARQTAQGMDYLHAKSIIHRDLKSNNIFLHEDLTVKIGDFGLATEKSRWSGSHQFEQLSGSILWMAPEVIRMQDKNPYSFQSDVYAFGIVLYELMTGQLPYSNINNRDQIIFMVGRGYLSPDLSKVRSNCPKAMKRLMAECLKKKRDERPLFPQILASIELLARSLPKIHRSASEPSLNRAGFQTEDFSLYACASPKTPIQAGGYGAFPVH
T5 sequence (P06239 whole entry): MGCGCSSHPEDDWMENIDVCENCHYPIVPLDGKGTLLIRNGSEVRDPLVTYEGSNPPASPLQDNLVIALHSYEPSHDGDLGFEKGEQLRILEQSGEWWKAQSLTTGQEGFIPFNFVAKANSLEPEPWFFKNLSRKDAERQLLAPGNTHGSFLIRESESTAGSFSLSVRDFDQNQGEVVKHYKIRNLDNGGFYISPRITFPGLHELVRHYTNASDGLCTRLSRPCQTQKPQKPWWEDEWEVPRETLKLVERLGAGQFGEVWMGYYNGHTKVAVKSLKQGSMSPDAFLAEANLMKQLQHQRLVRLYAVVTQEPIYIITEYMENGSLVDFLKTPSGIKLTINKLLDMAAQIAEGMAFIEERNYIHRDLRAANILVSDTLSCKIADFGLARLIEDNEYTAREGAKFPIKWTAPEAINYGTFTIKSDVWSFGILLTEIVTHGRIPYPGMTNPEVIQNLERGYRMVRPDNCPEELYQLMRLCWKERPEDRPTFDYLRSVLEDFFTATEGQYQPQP
T6 sequence (P06213 28-1382): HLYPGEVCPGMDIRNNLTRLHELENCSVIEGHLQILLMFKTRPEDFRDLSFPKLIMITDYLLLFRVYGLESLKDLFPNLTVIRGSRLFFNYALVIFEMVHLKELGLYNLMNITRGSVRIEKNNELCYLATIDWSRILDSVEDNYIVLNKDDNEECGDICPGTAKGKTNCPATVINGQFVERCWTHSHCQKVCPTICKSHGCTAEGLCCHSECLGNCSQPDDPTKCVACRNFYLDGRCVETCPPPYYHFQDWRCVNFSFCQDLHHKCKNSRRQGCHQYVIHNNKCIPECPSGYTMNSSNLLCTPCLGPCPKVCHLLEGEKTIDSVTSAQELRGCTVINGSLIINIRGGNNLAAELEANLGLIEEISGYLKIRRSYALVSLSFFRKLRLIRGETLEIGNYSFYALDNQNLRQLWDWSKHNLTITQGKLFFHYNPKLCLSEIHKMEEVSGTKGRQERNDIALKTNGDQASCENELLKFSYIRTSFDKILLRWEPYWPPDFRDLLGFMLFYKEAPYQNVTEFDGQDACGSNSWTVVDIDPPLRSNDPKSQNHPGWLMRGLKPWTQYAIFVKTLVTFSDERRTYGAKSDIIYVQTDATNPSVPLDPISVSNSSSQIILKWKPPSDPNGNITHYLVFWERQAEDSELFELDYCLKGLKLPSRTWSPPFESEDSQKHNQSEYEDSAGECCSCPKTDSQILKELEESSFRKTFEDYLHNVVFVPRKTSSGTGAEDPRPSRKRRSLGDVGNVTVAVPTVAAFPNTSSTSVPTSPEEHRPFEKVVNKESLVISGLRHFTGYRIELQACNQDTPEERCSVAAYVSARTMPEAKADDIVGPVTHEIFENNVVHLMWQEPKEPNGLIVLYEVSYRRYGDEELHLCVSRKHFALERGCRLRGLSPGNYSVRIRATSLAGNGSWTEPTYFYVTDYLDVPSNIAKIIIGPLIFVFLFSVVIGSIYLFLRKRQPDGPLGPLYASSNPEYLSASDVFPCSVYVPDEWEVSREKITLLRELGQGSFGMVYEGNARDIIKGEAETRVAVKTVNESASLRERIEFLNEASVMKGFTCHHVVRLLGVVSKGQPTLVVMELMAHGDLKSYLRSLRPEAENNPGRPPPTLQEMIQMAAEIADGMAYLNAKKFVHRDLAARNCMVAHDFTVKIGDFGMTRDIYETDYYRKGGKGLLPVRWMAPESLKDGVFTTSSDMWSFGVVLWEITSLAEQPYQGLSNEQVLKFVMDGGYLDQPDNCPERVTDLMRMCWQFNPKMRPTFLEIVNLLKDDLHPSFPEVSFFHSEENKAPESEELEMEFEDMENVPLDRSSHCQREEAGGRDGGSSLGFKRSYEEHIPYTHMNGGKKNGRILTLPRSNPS
T4 sequence (Q9UPE1 whole entry): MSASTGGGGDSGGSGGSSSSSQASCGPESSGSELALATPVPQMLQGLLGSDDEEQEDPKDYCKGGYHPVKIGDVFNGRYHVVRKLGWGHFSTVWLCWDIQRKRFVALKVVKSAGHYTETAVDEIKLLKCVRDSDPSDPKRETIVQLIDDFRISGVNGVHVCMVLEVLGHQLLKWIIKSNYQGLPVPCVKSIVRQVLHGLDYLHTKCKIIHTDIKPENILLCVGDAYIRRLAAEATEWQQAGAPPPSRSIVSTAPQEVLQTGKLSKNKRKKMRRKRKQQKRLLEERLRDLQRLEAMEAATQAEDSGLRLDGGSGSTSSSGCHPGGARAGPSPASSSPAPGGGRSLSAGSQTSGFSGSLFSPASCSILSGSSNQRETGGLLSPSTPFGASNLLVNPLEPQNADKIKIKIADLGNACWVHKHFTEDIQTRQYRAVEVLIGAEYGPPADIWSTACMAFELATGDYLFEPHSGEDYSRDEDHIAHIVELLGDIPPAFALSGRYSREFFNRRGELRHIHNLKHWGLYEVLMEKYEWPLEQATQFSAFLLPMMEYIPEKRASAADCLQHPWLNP
T7 sequence (P21802 22-821): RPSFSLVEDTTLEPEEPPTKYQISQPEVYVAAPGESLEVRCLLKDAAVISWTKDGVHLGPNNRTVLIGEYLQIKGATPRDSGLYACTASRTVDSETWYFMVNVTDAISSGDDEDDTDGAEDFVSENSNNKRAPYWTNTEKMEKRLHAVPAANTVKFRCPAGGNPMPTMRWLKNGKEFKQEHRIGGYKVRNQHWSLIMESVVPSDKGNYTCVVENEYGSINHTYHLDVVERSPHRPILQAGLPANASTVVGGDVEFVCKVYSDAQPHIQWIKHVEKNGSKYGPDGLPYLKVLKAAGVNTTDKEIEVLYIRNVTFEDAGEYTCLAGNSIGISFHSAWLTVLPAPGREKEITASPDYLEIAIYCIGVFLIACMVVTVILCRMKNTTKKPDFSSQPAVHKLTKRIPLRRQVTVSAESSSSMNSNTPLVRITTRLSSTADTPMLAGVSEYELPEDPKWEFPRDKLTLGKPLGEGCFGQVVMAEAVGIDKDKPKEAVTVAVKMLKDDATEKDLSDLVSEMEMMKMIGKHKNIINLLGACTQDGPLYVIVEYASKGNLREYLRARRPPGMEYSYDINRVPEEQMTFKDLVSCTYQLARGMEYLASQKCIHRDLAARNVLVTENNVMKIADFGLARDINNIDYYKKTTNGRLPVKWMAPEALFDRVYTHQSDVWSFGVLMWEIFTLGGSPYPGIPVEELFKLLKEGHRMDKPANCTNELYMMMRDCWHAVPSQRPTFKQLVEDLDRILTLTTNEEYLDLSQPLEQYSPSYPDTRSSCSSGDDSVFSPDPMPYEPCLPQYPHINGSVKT

Row | Compound | RA @ 1000nM [1] [%] | RA @ 10000nM [1] [%] | RA @ 1000nM [2] [%] | RA @ 10000nM [2] [%] | RA @ 1000nM [3] [%] | RA @ 10000nM [3] [%] | RA @ 1000nM [4] [%] | RA @ 10000nM [4] [%] | RA @ 1000nM [5] [%] | RA @ 10000nM [5] [%] | RA @ 1000nM [6] [%] | RA @ 10000nM [6] [%] | RA @ 1000nM [7] [%] | RA @ 10000nM [7] [%] | RA @ 1000nM [8] [%] | RA @ 10000nM [8] [%]
1 | CN(C)CCNC(=O)c1cc2c(cnn2CC2CCCCC2)cc1Cc1ccc(F)cc1F [Compound 95, 1-(Cyclohexylmethyl)-5-(2,4-difluorobenzyl)-N-(2-(dimethylamino)ethyl)-1H-indazole-6-carboxamide] | 77 | 75 | 98 | 100 | 100 | 100 | 92 | 99 | 94 | 100 | 84 | 81 | 100 | 100 | 92 | 100
2 | CC(C)Cn1ncc2cc(Cc3ccc(F)cc3F)c(C(=O)NCCN(C)C)cc21 [Compound 94, 5-(2,4-Difluorobenzyl)-N-(2-(dimethylamino)ethyl)-1-isobutyl-1H-indazole-6-carboxamide] | 71 | 88 | 100 | 100 | 100 | 100 | 77 | 100 | 100 | 97 | 81 | 90 | 95 | 100 | 100 | 89
